Test results: the supplement of paper PMC10307832

Experiments:
Assay in all cases: relative viability (nuclei count vs DMSO), 5 days (fraction); higher = more cells survive
[1] = compound: Cc1nc(NC(=O)N2CCC[C@H]2C(N)=O)sc1-c1ccnc(C(C)(C)C(F)(F)F)c1 [Alpelisib] + COc1cccc2cc(-c3nc([C@H]4CC[C@H](C(=O)O)CC4)n4ncnc(N)c34)[nH]c12 [OSI-027] (partner 0.5 µM)
In short: (§1)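 Relative viability was taken as the ratio of nuclei in treated wells to nuclei in vehicle wells. Lung cancer cell lines in 1536-well plates received compounds by pin tool one day after seeding, either one drug alone or a fixed anchor-drug dose plus five library-drug doses (not always all listed) in √10 steps. Nuclei were counted on 4× images after 5 days of treatment, and values are medians of duplicate plates.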

[2] = compound: CCCS(=O)(=O)Nc1ccc(F)c(C(=O)c2c[nH]c3ncc(-c4ccc(Cl)cc4)cc23)c1F [Vemurafenib] + O=C(CCCCCCC(=O)Nc1ccccc1)NO [Vorinostat] (partner 1 µM)
In short: as §1

[3] = compound: COc1cccc2cc(-c3nc([C@H]4CC[C@H](C(=O)O)CC4)n4ncnc(N)c34)[nH]c12 [OSI-027] + CS(=O)(=O)N1CCN(Cc2cc3nc(-c4cccc5[nH]ncc45)nc(N4CCOCC4)c3s2)CC1 [Pictilisib] (partner 1 µM)
In short: as §1

[4] = compound: Cc1nc(NC(=O)N2CCC[C@H]2C(N)=O)sc1-c1ccnc(C(C)(C)C(F)(F)F)c1 [Alpelisib] + Nc1nc2[nH]cc(CCc3ccc(C(=O)N[C@@H](CCC(=O)O)C(=O)O)cc3)c2c(=O)[nH]1 [Pemetrexed] (partner 0.2 µM)
In short: as §1

Row | Cell Line | relative viability ([1]; first compound 0.04 µM) | relative viability ([1]; first compound 0.4 µM) | relative viability ([1]; first compound 1.265 µM) | relative viability ([1]; first compound 4 µM) | relative viability ([2]; first compound 0.03162 µM) | relative viability ([2]; first compound 0.1 µM) | relative viability ([2]; first compound 0.3162 µM) | relative viability ([2]; first compound 1 µM) | relative viability ([3]; first compound 0.01 µM) | relative viability ([3]; first compound 0.03162 µM) | relative viability ([3]; first compound 0.1 µM) | relative viability ([3]; first compound 0.3162 µM) | relative viability ([3]; first compound 1 µM) | relative viability ([4]; first compound 0.04 µM) | relative viability ([4]; first compound 0.1265 µM) | relative viability ([4]; first compound 0.4 µM) | relative viability ([4]; first compound 1.265 µM) | relative viability ([4]; first compound 4 µM) | relative viability ([1]; first compound 0.1265 µM)
1 | NCI-H1734 | 0.513 | 0.455 | 0.278 | 0.201 | 0.809 | 0.783 | 0.759 | 0.702 | 0.455 | 0.45 | 0.491 | 0.337 | 0.264 | 0.407 | 0.406 | 0.394 | 0.406 | 0.399 | –
2 | NCI-H358 | 0.558 | 0.572 | 0.292 | 0.121 | 0.671 | 0.587 | 0.768 | 0.65 | 0.334 | 0.333 | 0.273 | 0.267 | 0.284 | 0.196 | 0.163 | 0.145 | 0.143 | 0.145 | 0.767
3 | NCI-H650 | 0.552 | 0.488 | 0.357 | 0.325 | 0.413 | 0.384 | 0.263 | 0.296 | 0.882 | 0.745 | 0.702 | 0.452 | 0.345 | 0.909 | 0.923 | 0.879 | 0.794 | 0.757 | 0.435
4 | BEN | 0.295 | 0.276 | 0.315 | 0.245 | 0.494 | 0.592 | 0.402 | 0.503 | 0.59 | 0.472 | 0.371 | 0.328 | 0.272 | 0.723 | 0.598 | 0.844 | 0.794 | 0.85 | 0.299
5 | NCI-H647 | 0.614 | 0.626 | 0.392 | 0.471 | 0.411 | 0.643 | 0.6 | 0.442 | 0.395 | 0.398 | 0.234 | 0.276 | 0.15 | 0.182 | 0.168 | 0.193 | 0.161 | 0.155 | 0.576
6 | NCI-H661 | 0.628 | 0.709 | 0.523 | 0.493 | 0.73 | 0.72 | 0.803 | 0.749 | 0.42 | 0.392 | 0.344 | 0.254 | 0.268 | 0.941 | 1.01 | 0.961 | 0.915 | 0.796 | 0.668
7 | HCC-44 | 0.519 | 0.541 | 0.307 | 0.451 | 1.09 | 1.01 | 1.09 | 1.16 | 0.521 | 0.572 | 0.481 | 0.32 | 0.365 | 0.65 | 0.706 | 0.698 | 0.65 | 0.619 | 0.419
8 | NCI-H2347 | 0.484 | 0.356 | 0.3 | 0.233 | 0.542 | 0.539 | 0.52 | 0.624 | 0.559 | 0.589 | 0.411 | 0.324 | 0.313 | 0.459 | 0.418 | 0.442 | 0.425 | 0.405 | 0.398
9 | LC-2-ad | 0.783 | 0.712 | 0.478 | 0.416 | 0.627 | 0.669 | 0.364 | 0.687 | 0.427 | 0.373 | 0.501 | 0.474 | 0.221 | 0.276 | 0.276 | 0.275 | 0.267 | 0.271 | 0.692
10 | COR-L 105 | 0.715 | 0.846 | 0.527 | 0.513 | 0.838 | – | 0.903 | 0.815 | 0.389 | 0.453 | 0.358 | 0.377 | 0.254 | 1.12 | 1.18 | 1.39 | 0.935 | 1.13 | 0.567
11 | NCI-H838 | 0.386 | 0.317 | 0.244 | 0.211 | 0.683 | 0.726 | 0.6 | 0.844 | 0.409 | 0.434 | 0.294 | 0.241 | 0.297 | 0.257 | 0.238 | 0.244 | 0.229 | 0.199 | 0.366
12 | COR-L23 | 0.81 | 0.938 | 0.566 | 0.492 | 0.443 | 0.412 | 0.373 | 0.441 | 0.834 | 0.877 | 0.668 | 0.459 | 0.171 | 0.188 | 0.184 | 0.215 | 0.2 | 0.196 | 0.713
13 | EMC-BAC-2 | 0.368 | 0.334 | 0.285 | 0.218 | 0.361 | 0.411 | – | 0.415 | 0.597 | 0.47 | 0.469 | 0.431 | 0.376 | 0.448 | 0.461 | 0.447 | 0.441 | 0.353 | 0.329
14 | NCI-H3122 | 0.928 | 0.648 | 0.37 | 0.176 | 0.962 | 0.916 | 1.01 | 1.04 | 0.603 | 0.584 | 0.513 | 0.317 | 0.258 | 0.208 | 0.208 | 0.204 | 0.197 | 0.173 | 0.791
15 | NCI-H1395 | 0.593 | 0.717 | 0.588 | 0.634 | 0.627 | 0.707 | 0.499 | 0.709 | 0.559 | 0.705 | 0.514 | 0.458 | 0.554 | 0.96 | 0.747 | 0.92 | 0.718 | 0.714 | 0.558
16 | NCI-H2023 | 0.357 | 0.311 | 0.192 | 0.156 | 0.531 | 0.662 | 0.57 | 0.584 | 0.23 | 0.229 | 0.181 | 0.155 | 0.0973 | 0.214 | 0.221 | 0.219 | 0.181 | 0.185 | 0.33
17 | ChaGo-K-1 | 0.543 | 0.49 | 0.394 | 0.342 | 0.743 | 0.762 | 0.605 | 0.762 | 0.665 | 1.02 | 0.356 | 0.492 | 0.381 | 0.265 | 0.257 | 0.263 | 0.263 | 0.251 | 0.592
